Key:
[1] = test system: SpADH2; test: Preliminary evaluation of NCB usage in oxidation of syringyl alcohol (HPLC); type: biochemical, Sphingobium sp. SYK-6; conditions: preliminary assay: 1a 1 mM, NCB 10 mM, pH 7.0, 30℃, 0.1 mg/mL enzyme, 1 h
Experimental: Sphingobium sp. SYK-6 belongs to genus Sphingomonas, and a search in UniProtKB identified 19 ADHs from this strain, including 5 PQQ-dependent and the remaining NAD^+/NADP^+-dependent enzymes. Two sequences annotated as aryl-alcohol dehydrogenases (SLG_34580 and SLG_24930) (Table. S1) were selected for heterologous expression (Fig. S1) and named SpADH1 and SpADH2, respectively. Their ability to utilize NCBs was assessed by oxidation of syringyl alcohol (1a) to produce syringaldehyde (1b) (Fig. 1a).
Fig. 1 (a) Reaction scheme of SpADH2-catalyzed oxidation of syringyl alcohol. (b) Specific activity of SpADH2 toward four NCBs. The evaluation of NCBs usage by SpADH2 was carried out under following conditions: 50 mM PBS buffer (pH 7.0) and 30℃, with 1a (1 mM) as substrate and 4 typical NCBs (10 mM) as cofactor. A total of 0.1 mg/mL enzyme was added to a 200 µL reaction mixture, and was analyzed by HPLC after 1 h reaction
Reaction samples were analyzed using Agilent 1260 Infinity II LC system under reversed phase condition. Column: Agilent C18 column. Analytical conditions for 1a and 1b: mobile phase: 50% water: 50% acetonitrile. The retention time for standard product 1b was 3.27 min, under flow rate of 1 mL·min^− 1and temperature of 30°C (Fig. S4).

[2] = test system: SpADH2 variants (H43L, A290I, H43L/A290I); test: Cofactor spectrum (HPLC specific activity), all variants together; type: biochemical, Sphingobium sp. SYK-6; conditions: 1a 5 mM, cofactor 7.5 mM, pH 7.5, 30℃
Experimental: Fig. 8 Cofactor spectrums of SpADH2 and its variants. The darkness of color for each cofactor stands for the activity. For each cofactor cube, top left: WT, top right: H43L, bottom left: A290I, bottom right: H43L/A290I. (a) Natural cofactors and NMN^+ are shown in purple. (b) tsNCBs are shown in cyan. The evaluation of cofactor spectrum was carried out under following conditions: 50 mM PBS buffer (pH 7.5) and 30℃, with 1a (5 mM) as substrate and different cofactors (7.5 mM) as cofactor. For NAD(P)^+ and NMN^+, 0.05 µg enzyme was added, and for tsNCBs, 5 µg enzyme was added. The results were analyzed by HPLC after 1 h reaction
Specific activity of SpADH2 in cofactor spectrum study was determined by HPLC analysis. PBS (pH 7.5) buffer was pre-heated at 30°C for 15 min. For NAD(P)^+ and NMN^+, 0.05 µg SpADH2 was added to PBS buffer (100 µL). For tsNCBs, 5 µg SpADH2 was added. A final concentration of 7.5 mM cofactor was added to the reaction mixture. Finally, a final concentration of 5 mM substrate was added to start the reaction. The reactions were conducted at 30°C.
One unit of enzyme activity is defined as the amount of enzyme required to form 1 µmol 1b per minute at pH 7.5 and 30°C. Same reaction without cofactor was used as a blank control.

[3] = molecular target: SpADH2 WT (Sphingobium sp. SYK-6, UniProt G2IIZ8); test: Substrate kinetic assay, WT; type: biochemical
Experimental: (§1) Specific activity of SpADH2 in substrate spectrum study was measured spectrophotometrically. PBS (pH 7.5) buffer was pre-heated at 30°C for 15 min. For NAD^+, 0.05 µg SpADH2 was added to the PBS buffer (100 µL), and a final concentration of 2 mM NAD^+ was added. For tsNCBs cofactor p-BANA^+, 5 µg SpADH2 and a final concentration of 7.5 mM p-BANA^+ was added. The mixture was carried out in a 96-well microplate, and a final concentration of 5 mM substrate was added to start the reaction. The microplate was incubated in 30°C for 1 h. Florescent probes (2-[2-(1,4-dihydro-1-methyl-3-quinolinyl)ethenyl]-1,3,3-trimethyl-3H-indolium) in a final concentration of 0.2 mM (100 µL) was added (Scheme S1), and the microplate was placed in a microplate reader immediately for measurement under 537 nm (Fomin et al. [2016]).
(§2) Kinetic analysis of SpADH2 and its variants were carried out following Michaelis-Menten equation or Michaelis-Menten excess substrate inhibition equation. For of the substrate kinetic assays, concentrations of cofactors were fixed at 5 mM for NAD^+ and 7.5 mM for p-BANA^+. For cofactor kinetic assays, the concentration of 1a was fixed at 5 mM.
(§3) Specific activity was determined spectrophotometrically as above except that gradient 1a (0−20 mM) or cofactor (0−35 mM) concentrations were applied.
(§4) Cofactor specificity ratio (CSR) represents the ratio of catalytic efficiency of p-BANA^+ to NAD^+ for each enzyme, and relative specificity (RS) stands for the CSR ratio of variants to WT (King et al. [2020]).

[4] = test system: SpADH2 variant H43L; test: Substrate kinetic assay, H43L; type: biochemical, Sphingobium sp. SYK-6
Experimental: as §1, §2, §3, §4

[5] = test system: SpADH2 variant H43L; test: Cofactor kinetic assay, H43L; type: biochemical, Sphingobium sp. SYK-6
Experimental: as §1, §2, §3, §4

[6] = test system: SpADH2 variant A290I; test: Cofactor kinetic assay, A290I; type: biochemical, Sphingobium sp. SYK-6
Experimental: as §1, §2, §3, §4

[7] = test system: SpADH2 variant H43L/A290I; test: Cofactor kinetic assay, H43L/A290I; type: biochemical, Sphingobium sp. SYK-6
Experimental: as §1, §2, §3, §4

[8] = 1a varied, cofactor (= label) fixed: 5 mM NAD^+ or 7.5 mM p-BANA^+
[9] = cofactor (= label) varied, 1a fixed at 5 mM
[10] = cofactor (= label) varied, 1a fixed at 5 mM, pH 7.5, 30°C
[11] = cofactor (= label) varied, 1a fixed at 5 mM, read-out: Ki (cofactor inhibition)
[12] = cofactor kinetics, cofactor = label

SpADH2 WT, sequence (G2IIZ8 1-372): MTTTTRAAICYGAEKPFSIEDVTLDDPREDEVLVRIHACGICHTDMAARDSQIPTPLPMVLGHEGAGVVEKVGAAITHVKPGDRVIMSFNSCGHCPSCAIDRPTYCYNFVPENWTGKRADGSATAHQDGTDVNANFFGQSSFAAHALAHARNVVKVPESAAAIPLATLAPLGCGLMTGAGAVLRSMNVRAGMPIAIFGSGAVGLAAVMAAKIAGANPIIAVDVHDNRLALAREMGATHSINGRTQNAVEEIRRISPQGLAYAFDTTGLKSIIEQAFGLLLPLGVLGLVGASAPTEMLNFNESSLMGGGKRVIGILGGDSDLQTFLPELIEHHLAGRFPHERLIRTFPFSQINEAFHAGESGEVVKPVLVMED

With `NC(=O)c1ccc[n+](Cc2ccc(C(=O)O)cc2)c1` [p-BANA^+, para-3-carbamoyl-1-(4-carboxybenzyl)pyridin-1-ium] the “catalytic activity of SpADH2 with the NCB as cofactor” value [1] was 1.62 U/g, the “catalytic activity of all variants with the cofactor (in words)” value [2] was “highest activity” and the kcat [3, 8] was 1.1 ± 0.3 min^− 1. For the same compound, the “Cofactor specificity ratio (catalytic efficiency of p-BANA^+ to NAD^+)” value ([3]; substrate kinetics) was 1.52×10^-5, the kcat [4, 8] was 2.5 ± 0.9 min^− 1 and the “Cofactor specificity ratio (catalytic efficiency of p-BANA^+ to NAD^+)” value ([4]; substrate kinetics) was 9.30×10^-4. The “Relative specificity (CSR ratio of variant to WT)” value ([4]; substrate kinetics) was 61.2, the “fold increase in kcat vs WT” value ([4]; substrate kinetics, cofactor = label) was 2 fold and the kcat [5, 9] was 5.1 ± 2.0 min^− 1. For the same compound, the Km [5, 10] was 28 ± 13 mM, the Ki [5, 11] was 5.4 ± 2.5 mM and the “Cofactor specificity ratio (catalytic efficiency of p-BANA^+ to NAD^+)” value ([5]; cofactor kinetics) was 3.08×10^-4. The “Relative specificity (CSR ratio of variant to WT)” value ([5]; cofactor kinetics) was 8.08, the kcat [6, 9] was 13 ± 2.5 min^− 1 and the Km [6, 10] was 14 ± 3.8 mM. The Ki [6, 11] was 18 ± 5.8 mM, the “Cofactor specificity ratio (catalytic efficiency of p-BANA^+ to NAD^+)” value ([6]; cofactor kinetics) was 2.96×10^-4 and the “Relative specificity (CSR ratio of variant to WT)” value ([6]; cofactor kinetics) was 7.77. The “fold higher catalytic efficiency (kcat/Km) than WT” value [6, 12] was 10 fold, the “fold increase in kcat value vs WT” value [6, 12] was 7.9 fold and the kcat [7, 9] was 8.7 ± 1.3 min^− 1. The Km [7, 10] was 13 ± 2.7 mM, the Ki [7, 11] was 15 ± 3.5 mM and the “Cofactor specificity ratio (catalytic efficiency of p-BANA^+ to NAD^+)” value ([7]; cofactor kinetics) was 1.94×10^-2. The “Relative specificity (CSR ratio of variant to WT)” value ([7]; cofactor kinetics) was 509.

Reference: article PMC12052742, “Engineering a newly identified alcohol dehydrogenase from Sphingobium Sp. for efficient utilization of nicotinamide cofactors biomimetics” (Bioresources and Bioprocessing, 2025)
